Consider 1 substance from US10093973B2, “Polymerase compositions and methods” (LIFE TECHNOLOGIES CORPORATION, priority 2009, dated 2018).

Positions count from the first letter of the chain named.

Common to all, as to format: biochemical
The subject of assay [1] is ωdN4P and extendible AF546 primer:template duplex. Put plainly: Stopped-flow tpol measurement of Example 8. To be noted: modified versus reference polymerase, ωdN4P 14 μM. As for the experimental part:
In this example, the tpol values of an exemplary modified polymerase comprising the amino acid of SEQ ID NO: 8 and was measured and compared to the tpol value of an exemplary reference polymerase comprising the amino acid sequence of SEQ ID NO: 20. These kinetic parameters were evaluated using a stopped-flow assay wherein a mixture comprising an extendible dye-labeled primer:template duplex and test polymerase was mixed with a solution comprising terminally-labeled nucleotide tetraphosphates or terminally-labeled nucleotide hexaphosphates. These terminally-labeled nucleotides comprise terminal-phosphate-labeled nucleotides having an alkyl linker with a functional amine group attached to the dye. The fluorescence of the resulting mixture was monitored over time. Unless noted otherwise, all concentrations refer to the initial concentrations prior to mixing. […]
Each primer-template duplex (200 nM) was preincubated with test polymerase (660 nM) and to form an E.DNA binary complex. This binary complex was mixed with the cognate omega-labeled nucleoside tetraphosphate (ωdN4P; 14 μM) in a stopped-flow experiment, and the fluorescence at both 546 nm and 647 nm was monitored following mixing. The averaged stopped-flow fluorescence traces were fitted with the double exponential function of Equation (2) to extrapolate the tpol value of the test polymerase: […]

For another assay, the system named is primer-template duplex. In words: Fractional extension activity assay. The note with it: versus reference RB69 (SEQ ID NO: 15) and His-tagged Phi-29 (SEQ ID NO: 20); 330 nM enzyme, 1 μM dNTP, room temperature, 10 seconds. As for the experimental part:
The fractional extension activity of an exemplary modified polymerase having the amino acid of SEQ ID NO: 8 (referred to as “B104(exo-)” in FIG. 3) was measured and compared to the fractional extension activities of two different exemplary reference polymerases, including an RB69 reference polymerase comprising the amino acid sequence SEQ ID NO: 15 and a His-tagged Phi-29 reference polymerase comprising the amino acid sequence of SEQ ID NO: 20 (referred to herein as “HP1 polymerase”). All polymerases were prepared according to the method of Example 1. Both modified and reference polymerases were evaluated and compared in an assay to measure the fractional extension activity of each polymerase, i.e., the fraction of nucleic acid templates that are extended by at least one nucleotide in a polymerase reaction. In this assay, the fractional extension activity of a polymerase is defined as the fraction (measured as a percentage fraction) of nucleic acid templates that are extended by at least one nucleotide by the test or reference polymerase under the following reaction conditions: 50 mM Tris, pH 7.0, 50 mM NaCl, 1 mM MnCl2, 1 μM dNTP, 330 nM enzyme, 100 nM primer-template duplex and 0.5% BSA, wherein the extension is performed at room temperature for 10 seconds.
The primer-template duplex was formed by annealing the following polynucleotides: […]

For assay [2], the system named is AF647-C6-dG6P in [enzyme.DNA.nucleotide] ternary complex with dideoxy-primer/template duplex. Put plainly: Stopped-flow measurement of t−1 (nucleotide dissociation from ternary complex). Set-up: unit not given here. To be noted: t−1 = 1/k−1; ternary complex with 7 μM AF647-C6-dG6P chased with 50 μM non-labeled nucleotide, 2 mM MnCl2. The method, then: Stopped-Flow Measurements of t−1
The stopped-flow techniques for measuring t−1 ([…]) followed the techniques described by M. Bakhtina (2009 Biochemistry 48:3197-3208).
The rate of the nucleotide dissociation ([…]) from the ternary complex of [enzyme.DNA.nucleotide] was measured in an Applied Photophysics SX20 stopped-flow spectrometer by monitoring changes […] a duplex Alexa fluor 546 dye-labeled-DNA template following the mixing of the [enzyme.DNA.labeled nucleotide] ternary complex with 50 μM cognate non-labeled deoxynucleoside triphosphate in a buffer containing 50 mM Tris-HCl (pH 7.5), 50 mM NaCl, 4 mM DTT, 0.2% BSA, and 2 mM MnCl2.
The ternary complexes were prepared using: 330 nM polymerase, 100 nM template/primer duplex, and 7 μM terminal phosphate-labeled nucleotides (AF647-C6-dG6P).
The averaged stopped-flow fluorescence traces (>1.5 msec) were fitted with a single exponential equation (2) to extrapolate the rate of the nucleotide dissociation (k−1) from the [enzyme.DNA.nucleotide] ternary complex. Fluorescence=A1*e^−k−1*t+C (equation 2) where A1 represents the corresponding fluorescence amplitude, C is an offset constant, and k−1 and the observed rate constants for the fluorescence transition.

In the case of “mB103 (SEQ ID: 8): B103 polymerase triple mutant with D166A, F383L and D384N”, the estimated tpol values entry in assay [1] is “comparable”. Besides, the fractional extension activity entry in the assay with primer-template duplex is “higher”. Moreover, the “t−1” value in assay [2] was 16.
